Patent US5877210A, “Phosphotyrosine phosphatase inhibitors or phosphotyrosine kinase activators for controlling cellular proliferation” (priority 1995, dated 1999)
“Also recorded” adds a separate entry of the source.

Key:
PP2A = biological target: T1, PP2A (Homo sapiens, UniProt P67775); experiment: Serine/threonine phosphatase PP2A inhibition; type: biochemical; conditions: vs CD45 and PTP1B
T1 construct: purchased Upstate Biotechnology, Lake Placid, N.Y

THP-1 = experiment: [3H]thymidine incorporation assay; type: cell-based, human; conditions: for [3H]cpm incorporation: seven days
Method: (§1) For each cell type, the cells were passaged uniformly for all drug doses given during the seven-day period. The cells were then pulsed for six hours with [^3 H]thymidine. The extent of DNA synthesis was then determined by counting the radioactivity incorporated into the cells.
(§2) For assays of cellular proliferation, cells were grown five days in the presence of the indicated concentrations of BMLOV, pulsed 6 hr with [^3 H]-thymidine (New England Nuclear, Boston, Mass.), and counted in a liquid scintillation counter. Human peripheral blood lymphocytes (PBL) from normal volunteers were isolated from lymphocyte separation medium (Litton Bionetics, Kensington, Md.) by density gradient centrifugation. Monocytes were depleted from PBL by two rounds of plastic absorption for 30 minutes at 37° C. B cells were enriched for by negative selection using complement plus monoclonal antibodies to CD2, CD3, CD4, and CD8 for complement depletion. Clonogenic assays of colony formation in methylcellulose medium were performed as previously described (F. M. Uckun et al. (1992), supra).

Jurkat = experiment: [3H]thymidine incorporation assay; type: cell-based, human; conditions: for [3H]cpm incorporation: seven days
Method: as §1, §2

[1] = system: murine B cell lymphoma A20 cells; experiment: Anti-phosphotyrosine immunoblot; type: cell-based; conditions: 16 hr

T1 sequence (P67775 whole entry): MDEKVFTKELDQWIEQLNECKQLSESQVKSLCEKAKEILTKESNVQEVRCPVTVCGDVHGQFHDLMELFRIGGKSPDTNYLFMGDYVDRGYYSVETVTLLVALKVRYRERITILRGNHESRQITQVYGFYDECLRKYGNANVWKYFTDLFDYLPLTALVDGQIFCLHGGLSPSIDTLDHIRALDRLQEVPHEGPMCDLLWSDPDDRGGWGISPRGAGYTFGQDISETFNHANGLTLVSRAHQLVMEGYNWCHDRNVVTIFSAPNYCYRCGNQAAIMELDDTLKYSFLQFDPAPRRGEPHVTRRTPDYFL

Cc1occc(=O)c1[O-].Cc1occc(=O)c1[O-].[O]=[V+2] [BMLOV, Bis(maltolato)oxovanadium (IV)]
concentration for similar inhibition relative to phosphotyrosine phosphatases (PP2A): over 100 fold | [3H]cpm incorporation (THP-1; 1 μM BMLOV): 201670 cpm | [3H]cpm incorporation (THP-1; 5 μM BMLOV): 178290 cpm | [3H]cpm incorporation (THP-1; 10 μM BMLOV): 199993 cpm | [3H]cpm incorporation (THP-1; 25 μM BMLOV): 112209 cpm | sensitivity of proliferation to BMLOV, in words (THP-1; 25 μM, 5 or 7 days): only partial sensitivity; also recorded: showed an inhibition of growth | [3H]cpm incorporation (Jurkat; 1 μM BMLOV): 149950 cpm | [3H]cpm incorporation (Jurkat; 5 μM BMLOV): 118720 cpm | [3H]cpm incorporation (Jurkat; 10 μM BMLOV): 98057 cpm | [3H]cpm incorporation (Jurkat; 25 μM BMLOV): 26511 cpm | sensitivity of proliferation to BMLOV, in words (Jurkat; 25 μM, 5 or 7 days): moderately sensitive; also recorded: substantially inhibited | induction of tyrosine phosphorylation [1]: highly responsive
